Consider 39 molecules from patent US10934304B2, “Spirocyclic compounds” (Recurium IP Holdings, LLC, priority 2016, dated 2021).

Structures are written as SMILES.

In general, IC50 refers to the point on the concentration scale where inhibition reaches its midpoint.

Sequence of ERK2 (P28482 whole entry): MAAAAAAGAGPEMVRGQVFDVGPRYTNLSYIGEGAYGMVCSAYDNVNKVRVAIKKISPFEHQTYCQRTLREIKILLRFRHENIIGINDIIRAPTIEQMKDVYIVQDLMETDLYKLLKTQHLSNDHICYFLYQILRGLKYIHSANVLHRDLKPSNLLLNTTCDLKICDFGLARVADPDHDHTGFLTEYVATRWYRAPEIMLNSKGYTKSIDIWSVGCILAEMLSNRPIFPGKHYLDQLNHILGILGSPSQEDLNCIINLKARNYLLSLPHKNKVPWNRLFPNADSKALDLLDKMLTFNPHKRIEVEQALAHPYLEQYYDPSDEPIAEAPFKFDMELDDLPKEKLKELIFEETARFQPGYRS

The first assay relates to A375 (melanoma) cells. Kind of assay: Proliferation Assay (CellTiter-Glo). The format is cell-based. The following applies: 3 days incubation, CellTiter-Glo luminescence. How it is done: A375 (melanoma), Colo-205 (colon cancer), Miapaca (pancreatic), HPAFII (pancreatic), sNF02.0 (neurofibromatosis type 1), sNF96.2 (neurofibromatosis type 1) and 8505 (Thyroid) cells were grown and maintained in RPMI-1640 medium containing 100 U/mL penicillin-streptomycin and 10% fetal bovine serum. Cells were in growth medium in 96-well opaque-walled clear bottom plates and incubated in the CO2 incubator overnight before treatment. Cells were treated with compounds diluted in DMSO and a 10 point 3-fold serial dilutions were done. Plates were placed in 37° C., 5% CO2 to incubate for 3 days. Before they were developed by adding 100 μL of CellTiter-Glo reagent (Promega) to the assay plate, plates were shaken briefly for 2 mins and allowed to incubate at room temperature for 10 mins. The bottom of the plates was pasted with white back seal and luminescence was recorded with Flexstation3 with setting of luminescence, integration time 500 ms.
Compounds of Formula (I), (II) and (III) are active in this assay as noted in Table 2.
On the technique in general: Cellular ATP, detected with luciferase, serves as a proxy for viable cell number.
Consider `CC(C)Oc1ccc(-c2n[nH]c3ccc(N4CCC5(CCN(CC(=O)N6CCN(c7ccc(-c8ncn(C)n8)cc7)CC6C)C5)C4=O)nc23)cn1` (mixture of isomers) [Example 85], for which the IC50 was no more than 500 nM. As to `CC(C)Oc1ccc(-c2n[nH]c3ccc(N4CCC5(CCN(C(C)C(=O)N6CC=C(c7ncc(-c8ncn(C)n8)s7)CC6)C5)C4=O)nc23)cn1` (mixture of isomers) [Example 95], the IC50 was no less than 1000 nM. Still for that read-out and setting: the figure for `CC(C(=O)N1CC=C(c2ncc(-c3ncn(C)n3)s2)CC1)N1CCC2(CCN(c3ccc4[nH]nc(-c5ccc(F)cc5)c4n3)C2=O)C1` (mixture of isomers) [Example 96] is no less than 1000 nM; for `COc1ccc(F)c(-c2n[nH]c3ccc(N4CC[C@]5(CCN(CC(=O)N6CCC(c7ccc(-c8ncn(C)n8)cc7)CC6)C5)C4=O)cc23)n1` [Example 75] it is no more than 500 nM; for `CC(C)Oc1cnc(-c2n[nH]c3ccc(N4CC[C@]5(CCN(CC(=O)N6CC=C(c7ccc(-c8ncn(C)n8)cc7)CC6)C5)C4=O)cc23)c(F)c1` [Example 78] it is no less than 1000 nM. Take `CC(C)Oc1ccc(-c2n[nH]c3ccc(N4CCC5(CCN(CC(=O)N6CC=C(c7ccc(-c8ncn(C)n8)cc7)CC6)C5)C4=O)nc23)cn1` (stereo not drawn) [Example 83]: the IC50 was no more than 500 nM.

The molecule `CC(C)Oc1ccc(-c2n[nH]c3ccc(N4CC[C@]5(CCN(CC(=O)N6CCC(c7ncc(-c8ncn(C)n8)s7)CC6)C5)C4=O)nc23)cn1` [Example 86] displayed an IC50 of no more than 500 nM. The same measure, in the same setting: the value for `CC(C)Oc1ccc(-c2n[nH]c3ccc(N4CC[C@]5(CCN(CC(=O)N6CCN(c7ncc(-c8ncn(C)n8)s7)CC6)C5)C4=O)nc23)cn1` [Example 87] was no more than 500 nM; that for `CCn1cnc(-c2cnc(C3=CCN(C(=O)CN4CC[C@]5(CCN(c6ccc7[nH]nc(-c8ccc(OC(C)C)nc8)c7n6)C5=O)C4)CC3)s2)n1` [Example 88] was no more than 500 nM. Regarding `Cn1cnc(-c2cnc(C3=CCN(C(=O)CN4CC[C@]5(CCN(c6ccc7[nH]nc(-c8ccc(OC9CCC9)nc8)c7n6)C5=O)C4)CC3)s2)n1` [Example 90], the IC50 is no more than 500 nM. Take `CC(C)Oc1ccc(-c2n[nH]c3ccc(N4CC[C@]5(CCN(CC(=O)N6CC=C(c7ncc(-c8ncn(C)n8)s7)CC6)C5)C4=O)nc23)cc1` [Example 94]: the IC50 was no more than 500 nM.

In the case of `CC(C)Oc1ccc(-c2n[nH]c3ccc(N4CC[C@]5(CCN(CC(=O)N6CC=C(c7ccc(-c8ncn(CCN(C)C)n8)cc7)CC6)C5)C4=O)nc23)cn1` [Example 97], the IC50 was no more than 500 nM. For the molecule `CC(C)Oc1ccc(-c2n[nH]c3ccc(N4CC[C@]5(CCN(CC(=O)N6CC=C(c7ccc(-c8cn(C)cn8)cc7)CC6)C5)C4=O)nc23)cn1` [Example 98], the IC50 is no less than 1000 nM. On the same count and under the same terms, the value for `CC(C)Oc1ccc(-c2n[nH]c3ccc(N4CC[C@]5(CCN(CC(=O)N6CC=C(c7ncc(-c8cn(C)cn8)s7)CC6)C5)C4=O)nc23)cn1` [Example 99] was no more than 500 nM; that for `Cc1n[nH]c2ccc(-c3n[nH]c4ccc(N5CC[C@]6(CCN(CC(=O)N7CC=C(c8ccc(-c9ncn(C)n9)cc8)CC7)C6)C5=O)nc34)cc12` [Example 100] was no more than 500 nM; that for `CC(C)Oc1ccc(-c2n[nH]c3ccc(N4CC[C@]5(CCN(CC(=O)N6CC=C(c7ccc(-c8ncn(C)n8)cc7)CC6)C5)C4=O)nc23)cc1F` [Example 116] was no more than 500 nM. As to `CC(C)Oc1ccc(-c2n[nH]c3ccc(N4CC[C@]5(CCN(CC(=O)N6CC=C(c7ccc(-c8ncn(C)n8)c(F)c7)CC6)C5)C4=O)nc23)cc1F` [Example 117], the IC50 is no more than 500 nM. Still for that read-out and setting: the figure for `CC(C)Oc1ccc(-c2n[nH]c3ccc(N4CC[C@]5(CCN(CC(=O)N6CC=C(c7ncc(-c8ncn(C)n8)s7)CC6)C5)C4=O)nc23)cc1F` [Example 118] is no more than 500 nM.

Molecule `Cn1cnc(-c2ccc(C3=CCN(C(=O)CN4CC[C@]5(CCN(c6ccc7[nH]nc(-c8ccc(F)c(N9CCCC9)n8)c7c6)C5=O)C4)CC3)cc2)n1` [Example 119] yielded an IC50 of 500 to 1000 nM.

The same assay, now with this note: Homo sapiens, A-375, 72 h, 3 days incubation, CellTiter-Glo luminescence.
`CC(C)Nc1cc(-c2c[nH]c(C(=O)N[C@H](CO)c3cccc(Cl)c3)c2)c(Cl)cn1` [BVD-523, reference compound] gave an IC50 of no more than 500 nM.

`CC(C)Oc1ccc(-c2n[nH]c3ccc(N4CC[C@]5(CCN(CC(=O)N6CC=C(c7ccc(-c8ncn(C)n8)cc7)CC6)C5)C4=O)c(F)c23)cn1` [Example 1, (S)-2-(4-Fluoro-3-(6-isopropoxypyridin-3-yl)-1H-indazol-5-yl)-7-(2-(4-(4-(1-methyl-1H-1,2,4-triazol-3-yl)phenyl)-5,6-dihydropyridin-1(2H)-yl)-2-oxoethyl)-2,7-diazaspiro[4.4]nonan-1-one]: the IC50 is no less than 1000 nM. Same read-out and setting: the figure for `COc1ccc(-c2n[nH]c3ccc(N4CC[C@]5(CCN(CC(=O)N6CC=C(c7ccc(-c8ncn(C)n8)cc7)CC6)C5)C4=O)cc23)cn1` [Example 2] is no more than 500 nM; for `Cn1cnc(-c2ccc(C3=CCN(C(=O)CN4CC[C@]5(CCN(c6ccc7[nH]nc(N8CCC(F)(F)CC8)c7c6)C5=O)C4)CC3)cc2)n1` [Example 3, (S)-2-(3-(4,4-difluoropiperidin-1-yl)-1H-indazol-5-yl)-7-(2-(4-(4-(1-methyl-1H-1,2,4-triazol-3-yl)phenyl)-5,6-dihydropyridin-1 (2H)-yl)-2-oxoethyl)-2,7-diazaspiro[4.4]nonan-1-one] it is 500 to 1000 nM; for `Cc1ncc(-c2n[nH]c3ccc(N4CC[C@]5(CCN(CC(=O)N6CC=C(c7ccc(-c8ncn(C)n8)cc7)CC6)C5)C4=O)nc23)s1` [Example 30] it is no more than 500 nM. Turning to `Cc1noc2ccc(-c3n[nH]c4ccc(N5CC[C@]6(CCN(CC(=O)N7CC=C(c8ccc(-c9ncn(C)n9)cc8)CC7)C6)C5=O)nc34)cc12` [Example 101], the IC50 was no more than 500 nM. `CC(C)Oc1ccc(-c2n[nH]c3ccc(N4CC[C@]5(CCN(CC(=O)N6CC=C(c7ccc(-c8ncn(C)n8)cc7)CC6)C5)C4=O)nc23)cc1` [Example 103] came in with an IC50 of no more than 500 nM.

The molecule `CC(C)Oc1ccc(-c2n[nH]c3ccc(N4CC[C@]5(CCN(CC(=O)N6CC=C(c7ccc(-c8ncn(C)n8)cn7)CC6)C5)C4=O)nc23)cc1` [Example 104] registered an IC50 of no more than 500 nM. As for `CC(C)Oc1ccc(-c2n[nH]c3ccc(N4CC[C@]5(CCN(CC(=O)N6CC=C(c7ccc(-c8ncn(C)n8)nc7)CC6)C5)C4=O)nc23)cc1` [Example 105], the IC50 was 500 to 1000 nM. `COc1cc(-c2n[nH]c3ccc(N4CC[C@]5(CCN(CC(=O)N6CC=C(c7ccc(-c8ncn(C)n8)cc7)CC6)C5)C4=O)nc23)ccc1OC(C)C` [Example 107] displayed an IC50 of no more than 500 nM. The molecule `COc1cc(-c2n[nH]c3ccc(N4CC[C@]5(CCN(CC(=O)N6CC=C(c7ncc(-c8ncn(C)n8)s7)CC6)C5)C4=O)nc23)ccc1OC(C)C` [Example 108] showed an IC50 of no more than 500 nM.

For the molecule `CC(C)Oc1ccc(-c2n[nH]c3ccc(N4CC[C@]5(CCN(CC(=O)N6CC=C(c7ccc(-c8ncn(C)n8)cc7)CC6)C5)C4=O)cc23)cc1` [Example 109], the IC50 is no more than 500 nM. The same measure, in the same setting: the figure for `CC(C)Oc1ccc(-c2n[nH]c3ccc(N4CC[C@]5(CCN(CC(=O)N6CC=C(c7ncc(-c8ncn(C)n8)s7)CC6)C5)C4=O)cc23)cc1` [Example 110] is no more than 500 nM; for `CC(C)n1cc(-c2n[nH]c3ccc(N4CC[C@]5(CCN(CC(=O)N6CC=C(c7ccc(-c8ncn(C)n8)cc7)CC6)C5)C4=O)nc23)ccc1=O` [Example 111] it is no more than 500 nM; for `CC(C)Oc1ccc(-c2n[nH]c3ccc(N4CC[C@]5(CCN(CC(=O)N6CCN(c7ncc(-c8ncn(C)n8)s7)CC6)C5)C4=O)nc23)cc1` [Example 112] it is no more than 500 nM.

With `Cn1cnc(-c2cnc(C3=CCN(C(=O)CN4CC[C@]5(CCN(c6ccc7[nH]nc(C8CC8)c7n6)C5=O)C4)CC3)s2)n1` [Example 113], the IC50 is no more than 500 nM. For `CC(C)Oc1ccc(-c2n[nH]c3ccc(N4CC[C@]5(CCN(CC(=O)N6CCN(c7ccc(-c8ncn(C)n8)cc7)C[C@H]6C)C5)C4=O)nc23)cn1` [Example 114], the IC50 is no less than 1000 nM.

As to `CC(C)Oc1ccc(-c2n[nH]c3ccc(N4CC[C@]5(CCN(CC(=O)N6CCN(c7ccc(-c8ncn(C)n8)cc7)C[C@@H]6C)C5)C4=O)nc23)cn1` [Example 115], the IC50 is no more than 500 nM. The molecule `Cn1nccc1Nc1nccc(-c2ccn([C@H](CO)c3ccc(Cl)c(F)c3)c(=O)c2)n1` [GDC-0994, reference compound] returned an IC50 of 500 to 1000 nM. For the molecule `O=C(Nc1ccc2[nH]nc(-c3ccncc3)c2c1)[C@@H]1CCN(CC(=O)N2CCN(c3ccc(-c4ncccn4)cc3)CC2)C1` [SCH772984, reference compound], the IC50 was no more than 500 nM.

For the next assay, the target named is ERK2 (Homo sapiens (Human), UniProt P28482). Kind of assay: Active ERK1 and ERK2 Kinase Assay (Mobility Shift Assay). The format is biochemical. The following applies: activated ERK2, Mobility Shift Assay. How it is done:
Activated ERK1 and ERK2 activity was determined in a Mobility Shift Assay (MSA) format as follows: Compound and kinase solution were prepared with assay buffer (20 mM HEPES, 0.01% Triton X-100, 2 mM DTT, pH7.5) and mixed and incubated in for 30 mins at rt. ERK1 & ERK2 were then activated by the addition of F1-Substrate, ATP and metal solution and incubated for 1 h at rt. After 1 h, the reaction was terminated by the addition of […] of Termination Buffer (QuickScout Screening Assist MSA; Carna Biosciences) to the well. The reaction mixture was applied to LabChip™ system (PerkinElmer), and the product and substrate peptide peaks were separated, analyzed and quantitated. The kinase reaction is evaluated by the product ratio calculated from peak heights of product (P) and substrate(S) peptides (P/(P+S)).
As to `CC(C)Oc1ccc(-c2n[nH]c3ccc(N4CC[C@]5(CCN(CC(=O)N6CC=C(c7ccc(-c8ncn(C)n8)cc7)CC6)C5)C4=O)c(F)c23)cn1` [Example 1, (S)-2-(4-Fluoro-3-(6-isopropoxypyridin-3-yl)-1H-indazol-5-yl)-7-(2-(4-(4-(1-methyl-1H-1,2,4-triazol-3-yl)phenyl)-5,6-dihydropyridin-1(2H)-yl)-2-oxoethyl)-2,7-diazaspiro[4.4]nonan-1-one], the IC50 is no less than 250 nM. Consider `COc1ccc(-c2n[nH]c3ccc(N4CC[C@]5(CCN(CC(=O)N6CC=C(c7ccc(-c8ncn(C)n8)cc7)CC6)C5)C4=O)cc23)cn1` [Example 2], for which the IC50 was no more than 50 nM. The same measure, in the same setting: the value for `Cn1cnc(-c2ccc(C3=CCN(C(=O)CN4CC[C@]5(CCN(c6ccc7[nH]nc(N8CCC(F)(F)CC8)c7c6)C5=O)C4)CC3)cc2)n1` [Example 3, (S)-2-(3-(4,4-difluoropiperidin-1-yl)-1H-indazol-5-yl)-7-(2-(4-(4-(1-methyl-1H-1,2,4-triazol-3-yl)phenyl)-5,6-dihydropyridin-1 (2H)-yl)-2-oxoethyl)-2,7-diazaspiro[4.4]nonan-1-one] was no more than 50 nM.
